# Earlier results as cited in US20250205171A1, “TRANSDERMAL DELIVERY SYSTEMS FOR CERTAIN FACTOR Xa INHIBITORS AND RELATED METHODS FOR THEIR PREPARATION AND USE” (ARx, LLC, priority 2022, published 2025).
row,SMILES,water solubility
1,COc1ccc(NC(=O)c2ccc(C(=N)N(C)C)cc2)c(C(=O)Nc2ccc(Cl)cn2)c1 [betrixaban],2.5 to 2.7 mg/mL
2,COc1ccc(C(=O)Nc2cccc(O)c2NC(=O)c2ccc(N3CCCN(C)CC3)cc2)cc1 [darexaban],about 0.0048 mg/mL
3,COc1ccc(-n2nc(C(N)=O)c3c2C(=O)N(c2ccc(N4CCCCC4=O)cc2)CC3)cc1 [apixaban],about 0.11 mg/mL
4,CN1CCc2nc(C(=O)N[C@@H]3C[C@@H](C(=O)N(C)C)CC[C@@H]3NC(=O)C(=O)Nc3ccc(Cl)cn3)sc2C1 [edoxaban],about 0.093 mg/mL

# Further lines, results first:
row,water solubility,SMILES
1,about 7.91 mg/mL,CO[C@H]1O[C@H](COS(=O)(=O)O)[C@@H](O[C@@H]2O[C@@H](C(=O)O)[C@@H](O[C@H]3O[C@H](COS(=O)(=O)O)[C@@H](O[C@@H]4O[C@H](C(=O)O)[C@@H](O[C@H]5O[C@H](COS(=O)(=O)O)[C@@H](O)[C@H](O)[C@H]5NS(=O)(=O)O)[C@H](O)[C@H]4O)[C@H](OS(=O)(=O)O)[C@H]3NS(=O)(=O)O)[C@H](O)[C@H]2OS(=O)(=O)O)[C@H](O)[C@H]1NS(=O)(=O)O [fondaparinux]
2,about 0.01 mg/mL,O=C(NC[C@H]1CN(c2ccc(N3CCOCC3=O)cc2)C(=O)O1)c1ccc(Cl)s1 [rivaroxaban]
3,about 0.0088 mg/mL,COC(=O)[C@H](Cc1cccc(C(=N)N)c1)[C@@H](C)NC(=O)c1ccc(-c2cc[n+]([O-])cc2)cc1 [otamixaban]
4,about 0.00717 mg/mL,CO[C@@H]1C[C@H](C(=O)Nc2ccc(-n3ccccc3=O)cc2F)N(C(=O)Nc2ccc(Cl)cc2)C1 [eribaxaban]
5,about 0.217 mg/mL,O=C([C@H](O)CS(=O)(=O)c1ccc2cc(Cl)ccc2c1)N1CCC(N2CCCNC2=O)CC1 [letaxaban]
